Laboratory results published in EP0003788B1, “Glycofuranosyl-nitrosourea derivatives, process for their manufacture and their pharmaceutical preparations” (CIBA-GEIGY AG, priority 1978, dated 1979).

Key:
[1] = system: Leukämie L 1210; assay: Prolongation of life, leukaemia L 1210 in mice; type: in vivo, Mäusen
Procedure: So bewirken sie in Dosen von 25-500 mg/kg i.p. eine starke Hemmung des Tumorwachstums bei Mäusen mit z.B. Ehrlich-Ascites-Karzinom und bei Ratten mit z.B. Walker CaSa 256. Analoge Dosen bewirken eine Lebensverlängerung gegenüber Kontrollen bei Mäusen mit z.B. Leukämie L 1210.

[2] = Macroscopic organ changes in normal animals after three weeks of peroral treatment; type: in vivo
[3] = system: Ehrlich-Ascites-Karzinom; assay: Inhibition of tumour growth, Ehrlich ascites carcinoma in mice; type: in vivo, Mäusen
[4] = Tolerability and side effects on treatment; type: in vivo
[5] = system: Walker CaSa 256; assay: Inhibition of tumour growth, Walker CaSa 256 in rats; type: in vivo, Ratten

Question: With `CCO[C@@H]1O[C@H]([C@@H](CNC(=O)N(C)N=O)OC)[C@H](O)[C@H]1O` [Äthyl-6-desoxy-5-0-methyl-6-(3-methyl-3-nitroso-ureido)-ß-D-glucofuranosid] as the compound, how does the Lebensverlängerung ([1]; 50-250 mg/kg i.p.) read?
Answer: Its Lebensverlängerung is greater than 90%.

Question: And the Lebensverlängerung ([1]; p.o. application)?
Answer: The Lebensverlängerung was “Ähnliche Resultate”.

Question: And the Organveränderungen [2]?
Answer: The Organveränderungen was “keine Organveränderungen”.

Question: What about the “Hemmung des Wachstums der genannten Tumoren” value ([3]; 50-250 mg/kg i.p., mice with Ehrlich ascites carcinoma) of the same compound?
Answer: The value was 80-100%.

Question: And the “Hemmung des Wachstums der genannten Tumoren” value ([3]; p.o. application, Ehrlich ascites carcinoma)?
Answer: Its value is “Ähnliche Resultate”.

Question: And the Nebenwirkungen ([4]; also on prolonged treatment)?
Answer: The Nebenwirkungen was “nicht festzustellen”.

Question: What about the Verträglichkeit ([4]; in vivo) of the same compound?
Answer: The Verträglichkeit was “gut”.

Question: And the “Hemmung des Wachstums der genannten Tumoren” value ([5]; 50-250 mg/kg i.p., rats with Walker CaSa 256)?
Answer: The value was 80-100%.

Question: What about the “Hemmung des Wachstums der genannten Tumoren” value ([5]; p.o. application, Walker CaSa 256) of the same compound?
Answer: The value was “Ähnliche Resultate”.
